Read-outs that look alike come from different tables or passages of the source. Where a SMILES comes first, the peptide text is derived from it. [ ]: non-standard residue; d: D form. Cit = NC(=O)NCCC[C@H](N)C(=O)O
Biological target: HLA-A*02:01 (Homo sapiens, UniProt P04439, D140Y/D185E/D98H/E176V/E277Q/G131W/G231S/I119V/I121R/I166T/I218V/L300P/L318F/N151K/N90K/P208A/P217A/Q86G/Q94H/R138H/R169H/T345S)
Assay: HLA-peptide competition binding assay, A*02:01
[1] = unmodified (wild type) insulin-derived peptide, radiolabeled ligand competition, purified MHC, two-day incubation, three or more independent experiments, read-out: A*02:01 binding, WT
[2] = unmodified (WT) insulin peptide, competition binding assay, a dash indicates IC50 >40,000 nM, read-out: A*02:01 binding (IC50 nM) WT
[3] = post-translationally modified insulin-derived peptide, radiolabeled ligand competition, purified MHC, two-day incubation, three or more independent experiments, read-out: A*02:01 binding, Modified
[4] = post-translationally modified insulin peptide, competition binding assay, a dash indicates IC50 >40,000 nM, read-out: A*02:01 binding (IC50 nM) Modified
[5] = read-out: A*02:01 binding (IC50 nM) Modified

## CC(C)C[C@H](NC(=O)[C@H](C)N)C(=O)N[C@@H](Cc1ccc(O)cc1)C(=O)N[C@@H](CC(C)C)C(=O)N[C@H](C(=O)N[C@@H](CS)C(=O)NCC(=O)N[C@@H](CCC(=O)O)C(=O)N[C@@H](CCCNC(=N)N)C(=O)NCC(=O)O)C(C)C
[1]
  IC50: 8780 nM

## CC(C)C[C@H](NC(=O)[C@H](C)N)C(=O)N[C@@H](Cc1ccc(O)cc1)C(=O)N[C@@H](CC(C)C)C(=O)N[C@H](C(=O)N[C@@H](CS)C(=O)NCC(=O)N[C@@H](CCC(=O)O)C(=O)N[C@@H](CCCNC(N)=O)C(=O)O)C(C)C
  IC50: 1240 nM

## C[C@@H](O)[C@H](NC(=O)[C@H](CCCCN)NC(=O)[C@@H]1CCCN1C(=O)[C@@H](NC(=O)[C@H](Cc1ccc(O)cc1)NC(=O)[C@H](Cc1ccccc1)NC(=O)[C@H](Cc1ccccc1)NC(=O)CNC(=O)[C@H](CCCNC(=N)N)NC(=O)[C@@H](N)CCC(=O)O)[C@@H](C)O)C(=O)O
[2]
  IC50: > 40000 nM
[1]
  IC50: > 40000 nM

## C[C@@H](O)[C@H](NC(=O)[C@H](Cc1ccc(O)cc1)NC(=O)[C@H](Cc1ccccc1)NC(=O)[C@H](Cc1ccccc1)NC(=O)CNC(=O)[C@H](CCCNC(=N)N)NC(=O)[C@H](CCC(=O)O)NC(=O)CN)C(=O)N1CCC[C@H]1C(=O)N[C@@H](CCCCN)C(=O)O
[2]
  IC50: > 40000 nM

## C[C@@H](O)[C@H](NC(=O)[C@H](CCCCN)NC(=O)[C@@H]1CCCN1C(=O)[C@@H](NC(=O)[C@H](Cc1ccc(O)cc1)NC(=O)[C@H](Cc1ccccc1)NC(=O)[C@H](Cc1ccccc1)NC(=O)CN)[C@@H](C)O)C(=O)N[C@@H](CCCNC(=N)N)C(=O)O
read-out: A*02:01 binding (IC50 nM) WT
  IC50: 12200 nM

## C[C@@H](O)[C@H](NC(=O)[C@H](CCCCN)NC(=O)[C@@H]1CCCN1C(=O)[C@@H](NC(=O)[C@H](Cc1ccc(O)cc1)NC(=O)[C@H](Cc1ccccc1)NC(=O)[C@H](Cc1ccccc1)NC(=O)CN)[C@@H](C)O)C(=O)N[C@@H](CCCNC(=N)N)C(=O)N[C@@H](CCCNC(=N)N)C(=O)O
[2]
  IC50: > 40000 nM

## C[C@@H](O)[C@H](NC(=O)[C@H](CCCCN)NC(=O)[C@@H]1CCCN1C(=O)[C@@H](NC(=O)[C@H](Cc1ccc(O)cc1)NC(=O)[C@H](Cc1ccccc1)NC(=O)[C@H](Cc1ccccc1)NC(=O)CN)[C@@H](C)O)C(=O)N[C@@H](CCCNC(N)=O)C(=O)O
  IC50: 38400 nM

## CC(C)C[C@H](NC(=O)[C@H](Cc1ccc(O)cc1)NC(=O)[C@@H](N)CC(C)C)C(=O)N[C@H](C(=O)N[C@@H](CS)C(=O)NCC(=O)N[C@@H](CCC(=O)O)C(=O)N[C@@H](CCCNC(N)=O)C(=O)NCC(=O)O)C(C)C
[3]
  IC50: 12500 nM

## C[C@@H](O)[C@H](NC(=O)[C@H](CCCCN)NC(=O)[C@@H]1CCCN1C(=O)[C@@H](NC(=O)[C@H](Cc1ccc(O)cc1)NC(=O)[C@H](Cc1ccccc1)NC(=O)[C@H](Cc1ccccc1)NC(=O)CNC(=O)[C@@H](N)CCCNC(=N)N)[C@@H](C)O)C(=O)O
[2]
  IC50: > 40000 nM
[1]
  IC50: > 40000 nM

## C[C@@H](O)[C@H](NC(=O)[C@H](CCCCN)NC(=O)[C@@H]1CCCN1C(=O)[C@@H](NC(=O)[C@H](Cc1ccc(O)cc1)NC(=O)[C@H](Cc1ccccc1)NC(=O)[C@H](Cc1ccccc1)NC(=O)CNC(=O)[C@@H](N)CCCNC(=N)N)[C@@H](C)O)C(=O)N[C@@H](CCCNC(=N)N)C(=O)O
[2]
  IC50: > 40000 nM

## C[C@@H](O)[C@H](NC(=O)[C@H](CCCCN)NC(=O)[C@@H]1CCCN1C(=O)[C@@H](NC(=O)[C@H](Cc1ccc(O)cc1)NC(=O)[C@H](Cc1ccccc1)NC(=O)[C@H](Cc1ccccc1)NC(=O)CNC(=O)[C@@H](N)CCCNC(N)=O)[C@@H](C)O)C(=O)O
  IC50: 27300 nM

## CC(C)C[C@H](NC(=O)[C@H](C)N)C(=O)N[C@@H](CCC(=O)O)C(=O)NCC(=O)N[C@@H](CO)C(=O)N[C@@H](CC(C)C)C(=O)N[C@@H](CCC(N)=O)C(=O)N[C@@H](CCCCN)C(=O)N[C@@H](CCCNC(N)=O)C(=O)O (H-ALEGSLQK[Cit]-OH; N-terminus and C-terminus assumed)
[4]
  IC50: > 40000 nM

## CC(C)C[C@H](NC(=O)[C@H](C)N)C(=O)N[C@@H](CCC(=O)O)C(=O)NCC(=O)N[C@@H](CO)C(=O)N[C@@H](CC(C)C)C(=O)N[C@@H](CCC(N)=O)C(=O)N[C@@H](CCCCN)C(=O)N[C@@H](CCCNC(N)=O)C(=O)NCC(=O)O (H-ALEGSLQK[Cit]G-OH; N-terminus and C-terminus assumed)
[4]
  IC50: > 40000 nM

## CSCC[C@H](NC(=O)[C@H](Cc1c[nH]c2ccccc12)NC(=O)[C@H](CC(C)C)NC(=O)[C@H](C)N)C(=O)N[C@@H](CCCNC(N)=O)C(=O)N[C@@H](CC(C)C)C(=O)N[C@@H](CC(C)C)C(=O)N1CCC[C@H]1C(=O)N[C@@H](CC(C)C)C(=O)O (H-ALWM[Cit]LLPL-OH)
[3]
  IC50: 28 nM

## CSCC[C@H](NC(=O)[C@H](Cc1c[nH]c2ccccc12)NC(=O)[C@H](CC(C)C)NC(=O)[C@H](C)N)C(=O)N[C@@H](CCCNC(N)=O)C(=O)N[C@@H](CC(C)C)C(=O)N[C@@H](CC(C)C)C(=O)N1CCC[C@H]1C(=O)N[C@@H](CC(C)C)C(=O)N[C@@H](CC(C)C)C(=O)O (H-ALWM[Cit]LLPLL-OH)
[3]
  IC50: 69 nM

## C[C@@H](O)[C@H](NC(=O)[C@H](Cc1ccc(O)cc1)NC(=O)[C@H](Cc1ccccc1)NC(=O)[C@H](Cc1ccccc1)NC(=O)CNC(=O)[C@H](CCCNC(N)=O)NC(=O)[C@H](CCC(=O)O)NC(=O)CNC(=O)[C@@H](N)CS)C(=O)O (H-CGE[Cit]GFFYT-OH; N-terminus and C-terminus assumed)
[4]
  IC50: > 40000 nM

## C[C@@H](O)[C@H](NC(=O)[C@H](Cc1ccc(O)cc1)NC(=O)[C@H](Cc1ccccc1)NC(=O)[C@H](Cc1ccccc1)NC(=O)CNC(=O)[C@H](CCCNC(N)=O)NC(=O)[C@H](CCC(=O)O)NC(=O)CNC(=O)[C@@H](N)CS)C(=O)N1CCC[C@H]1C(=O)O (H-CGE[Cit]GFFYTP-OH; N-terminus and C-terminus assumed)
[4]
  IC50: > 40000 nM

## CC(C)C[C@H](NC(=O)[C@H](C)NC(=O)[C@@H](N)CCC(=O)O)C(=O)N[C@@H](Cc1ccc(O)cc1)C(=O)N[C@@H](CC(C)C)C(=O)N[C@H](C(=O)N[C@@H](CS)C(=O)NCC(=O)N[C@@H](CCC(=O)O)C(=O)N[C@@H](CCCNC(N)=O)C(=O)O)C(C)C (H-EALYLVCGE[Cit]-OH)
  IC50: 3100 nM

## CC[C@H](C)[C@H](NC(=O)CNC(=O)[C@H](CCCNC(N)=O)NC(=O)[C@H](CCCCN)NC(=O)[C@H](CCC(N)=O)NC(=O)[C@H](CC(C)C)NC(=O)[C@H](CO)NC(=O)CNC(=O)[C@@H](N)CCC(=O)O)C(=O)O (H-EGSLQK[Cit]GI-OH; N-terminus and C-terminus assumed)
[4]
  IC50: > 40000 nM

## CC[C@H](C)[C@H](NC(=O)CNC(=O)[C@H](CCCNC(N)=O)NC(=O)[C@H](CCCCN)NC(=O)[C@H](CCC(N)=O)NC(=O)[C@H](CC(C)C)NC(=O)[C@H](CO)NC(=O)CNC(=O)[C@@H](N)CCC(=O)O)C(=O)N[C@H](C(=O)O)C(C)C (H-EGSLQK[Cit]GIV-OH; N-terminus and C-terminus assumed)
[4]
  IC50: > 40000 nM

## C[C@@H](O)[C@H](NC(=O)[C@H](Cc1ccc(O)cc1)NC(=O)[C@H](Cc1ccccc1)NC(=O)[C@H](Cc1ccccc1)NC(=O)CNC(=O)[C@H](CCCNC(N)=O)NC(=O)[C@@H](N)CCC(=O)O)C(=O)N1CCC[C@H]1C(=O)N[C@@H](CCCCN)C(=O)O (H-E[Cit]GFFYTPK-OH)
[5]
  IC50: 38100 nM

## C[C@@H](O)[C@H](NC(=O)[C@H](CCCCN)NC(=O)[C@@H]1CCCN1C(=O)[C@@H](NC(=O)[C@H](Cc1ccc(O)cc1)NC(=O)[C@H](Cc1ccccc1)NC(=O)[C@@H](N)Cc1ccccc1)[C@@H](C)O)C(=O)N[C@@H](CCCNC(N)=O)C(=O)N[C@@H](CCCNC(N)=O)C(=O)O (H-FFYTPKT[Cit][Cit]-OH; N-terminus and C-terminus assumed)
[4]
  IC50: > 40000 nM

## C[C@@H](O)[C@H](NC(=O)[C@H](CCCCN)NC(=O)[C@@H]1CCCN1C(=O)[C@@H](NC(=O)[C@H](Cc1ccc(O)cc1)NC(=O)[C@H](Cc1ccccc1)NC(=O)[C@@H](N)Cc1ccccc1)[C@@H](C)O)C(=O)N[C@@H](CCCNC(N)=O)C(=O)N[C@@H](CCCNC(N)=O)C(=O)N[C@@H](CCC(=O)O)C(=O)O (H-FFYTPKT[Cit][Cit]E-OH)
[5]
  IC50: 28300 nM

## C[C@@H](O)[C@H](NC(=O)[C@H](CCCCN)NC(=O)[C@@H]1CCCN1C(=O)[C@@H](NC(=O)[C@H](Cc1ccc(O)cc1)NC(=O)[C@@H](N)Cc1ccccc1)[C@@H](C)O)C(=O)N[C@@H](CCCNC(N)=O)C(=O)N[C@@H](CCCNC(N)=O)C(=O)N[C@@H](CCC(=O)O)C(=O)O (H-FYTPKT[Cit][Cit]E-OH; N-terminus and C-terminus assumed)
[4]
  IC50: > 40000 nM

## C[C@H](NC(=O)[C@H](CCC(=O)O)NC(=O)[C@H](CCCNC(N)=O)NC(=O)[C@H](CCCNC(N)=O)NC(=O)[C@@H](NC(=O)[C@H](CCCCN)NC(=O)[C@@H]1CCCN1C(=O)[C@@H](NC(=O)[C@H](Cc1ccc(O)cc1)NC(=O)[C@@H](N)Cc1ccccc1)[C@@H](C)O)[C@@H](C)O)C(=O)O (H-FYTPKT[Cit][Cit]EA-OH; N-terminus and C-terminus assumed)
[4]
  IC50: > 40000 nM

## C[C@@H](O)[C@H](NC(=O)[C@H](Cc1ccc(O)cc1)NC(=O)[C@H](Cc1ccccc1)NC(=O)[C@H](Cc1ccccc1)NC(=O)CNC(=O)[C@H](CCCNC(N)=O)NC(=O)[C@H](CCC(=O)O)NC(=O)CN)C(=O)N1CCC[C@H]1C(=O)O (H-GE[Cit]GFFYTP-OH; N-terminus and C-terminus assumed)
[4]
  IC50: > 40000 nM

## CC[C@H](C)[C@H](NC(=O)CNC(=O)[C@H](CCCNC(N)=O)NC(=O)[C@H](CCCCN)NC(=O)[C@H](CCC(N)=O)NC(=O)[C@H](CC(C)C)NC(=O)[C@H](CO)NC(=O)CN)C(=O)N[C@H](C(=O)O)C(C)C (H-GSLQK[Cit]GIV-OH; N-terminus and C-terminus assumed)
[4]
  IC50: > 40000 nM

— PMC5863483, “Low HLA binding of diabetes-associated CD8+ T-cell epitopes is increased by post translational modifications” (BMC Immunology, 2018)
